# ± gives the standard deviation of the averaged measurements.
# Test system: HepaRG
# Experiment: LDH release cytotoxicity, % of total lysis control; higher = more cytotoxic
# Conditions: 48 h
# In short: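 On collagen I-coated 96-well plates, single-lot HepaRG cells were exposed for 48 h, in duplicate, to eight-point half-log series of test chemicals beginning at 100 µM. The exposure medium was serum-free induction medium with 0.5% DMSO, and total lysis wells got 0.1% Triton X. Resorufin fluorescence from the CytoTox-ONE reaction, read on a Tecan Safire, reported LDH in 50 µL of spent medium. Percent cytotoxicity came from normalization to on-plate vehicle and total lysis controls, averaged over the duplicates.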
structure (smiles),measurement,setting,value
O=C(O)c1ccccc1C(=O)OCc1ccccc1 [Monobenzyl phthalate],LDH release cytotoxicity,0.03162 µM,-6.32 ± 1.2%
same,LDH release cytotoxicity,0.1 µM,-7.14 ± 0.13%
same,LDH release cytotoxicity,0.3162278 µM,-7.38 ± 0.78%
same,LDH release cytotoxicity,1 µM,-7.25 ± 1%
same,LDH release cytotoxicity,3.16228 µM,-7.03 ± 0.21%
same,LDH release cytotoxicity,10 µM,-6.25 ± 0.21%
same,LDH release cytotoxicity,31.6228 µM,-5.79 ± 1.9%
same,LDH release cytotoxicity,100 µM,-5.73 ± 0.38%
CCCCOC(=O)c1ccccc1C(=O)O [Monobutyl phthalate],LDH release cytotoxicity,0.03162 µM,-2.25 ± 1%
same,LDH release cytotoxicity,0.1 µM,-2.21 ± 0.79%
same,LDH release cytotoxicity,0.3162278 µM,-2.76 ± 0.98%
same,LDH release cytotoxicity,1 µM,-3.09 ± 0.93%
same,LDH release cytotoxicity,3.16228 µM,-2.68 ± 1.3%
same,LDH release cytotoxicity,10 µM,-2.9 ± 1.1%
same,LDH release cytotoxicity,31.6228 µM,-2.43 ± 1.4%
same,LDH release cytotoxicity,100 µM,-0.95 ± 1.3%
CNC(=O)C=C(C)OP(=O)(OC)OC [Monocrotophos],LDH release cytotoxicity,0.03162 µM,-1.04 ± 1%
same,LDH release cytotoxicity,0.1 µM,-1.87 ± 0.34%
same,LDH release cytotoxicity,0.3162278 µM,-1.93 ± 1.1%
same,LDH release cytotoxicity,1 µM,-1.17 ± 1.1%
same,LDH release cytotoxicity,3.16228 µM,-1.61 ± 0.6%
same,LDH release cytotoxicity,10 µM,-1.39 ± 0.81%
same,LDH release cytotoxicity,31.6228 µM,-0.305 ± 0.93%
same,LDH release cytotoxicity,100 µM,-0.571 ± 0.54%
COC(=O)c1ccccc1C(=O)O [Monomethyl phthalate],LDH release cytotoxicity,0.031623 µM,-0.688 ± 1.4%
same,LDH release cytotoxicity,0.1 µM,-1.99 ± 0.55%
same,LDH release cytotoxicity,0.316228 µM,-2.92 ± 0.47%
same,LDH release cytotoxicity,1 µM,-2.55 ± 0.86%
same,LDH release cytotoxicity,3.16228 µM,-1.73 ± 0.51%
same,LDH release cytotoxicity,10 µM,-1.97 ± 0.5%
same,LDH release cytotoxicity,31.6228 µM,-0.563 ± 0.24%
same,LDH release cytotoxicity,100 µM,0.422 ± 0.27%
CN(C)C(=O)Nc1ccc(Cl)cc1 [Monuron],LDH release cytotoxicity,0.031623 µM,-1.01 ± 1.8%
same,LDH release cytotoxicity,0.1 µM,-1.82 ± 0.043%
same,LDH release cytotoxicity,0.316228 µM,-2.23 ± 0.4%
same,LDH release cytotoxicity,1 µM,-2.41 ± 0.67%
same,LDH release cytotoxicity,3.16228 µM,-2.49 ± 0.18%
same,LDH release cytotoxicity,10 µM,-1.39 ± 0.62%
same,LDH release cytotoxicity,31.6228 µM,-0.555 ± 1.5%
same,LDH release cytotoxicity,100 µM,0.589 ± 0.75%
CCCCC(C#N)(Cn1cncn1)c1ccc(Cl)cc1 (configuration not stated) [Myclobutanil],LDH release cytotoxicity,0.031623 µM,0.809 ± 1.1%
same,LDH release cytotoxicity,0.1 µM,0.0936 ± 0.35%
same,LDH release cytotoxicity,0.316228 µM,-0.274 ± 0.61%
same,LDH release cytotoxicity,1 µM,-0.556 ± 0.71%
same,LDH release cytotoxicity,3.16228 µM,-7.8 ± 0.19%
same,LDH release cytotoxicity,10 µM,8.33 ± 0.4%
same,LDH release cytotoxicity,31.6228 µM,0.7089 ± 0.0019%
same,LDH release cytotoxicity,100 µM,7.68 ± 2.1%
C=CC(=C)CCC=C(C)C [Myrcene],LDH release cytotoxicity,0.031623 µM,-1.27 ± 1.6%
same,LDH release cytotoxicity,0.1 µM,-2.39 ± 1%
same,LDH release cytotoxicity,0.316228 µM,-2.35 ± 0.3%
same,LDH release cytotoxicity,1 µM,-1.45 ± 0.82%
same,LDH release cytotoxicity,3.16228 µM,-1.74 ± 1.4%
same,LDH release cytotoxicity,10 µM,-1.93 ± 0.083%
same,LDH release cytotoxicity,31.6228 µM,-1.8 ± 0.49%
same,LDH release cytotoxicity,100 µM,0.279 ± 0.4%
"C=CC(=O)NCNC(=O)C=C [N,N'-Methylenebisacrylamide]",LDH release cytotoxicity,0.03162 µM,-0.744 ± 0.34%
same,LDH release cytotoxicity,0.1 µM,-0.797 ± 0.92%
same,LDH release cytotoxicity,0.3162278 µM,-0.644 ± 0.19%
same,LDH release cytotoxicity,1 µM,-1.4 ± 0.16%
same,LDH release cytotoxicity,3.16228 µM,-0.3 ± 1.1%
same,LDH release cytotoxicity,10 µM,-0.328 ± 0.92%
same,LDH release cytotoxicity,31.6228 µM,-0.405 ± 0.65%
same,LDH release cytotoxicity,100 µM,1.88 ± 0.48%
"Cc1ccc(N(C)C)cc1 [N,N,4-Trimethylaniline]",LDH release cytotoxicity,0.03162 µM,-1.35 ± 0.18%
same,LDH release cytotoxicity,0.1 µM,-2.34 ± 0.1%
same,LDH release cytotoxicity,0.3162278 µM,-1.31 ± 0.2%
same,LDH release cytotoxicity,1 µM,-1.01 ± 0.47%
same,LDH release cytotoxicity,3.16228 µM,-1.56 ± 1.1%
same,LDH release cytotoxicity,10 µM,-0.631 ± 0.84%
same,LDH release cytotoxicity,31.6228 µM,0.0145 ± 0.88%
same,LDH release cytotoxicity,100 µM,1.9 ± 0.59%
"CCN(CC)c1ccccc1 [N,N-Diethylaniline]",LDH release cytotoxicity,0.03162 µM,-1.55 ± 0.24%
same,LDH release cytotoxicity,0.1 µM,-1.44 ± 0.47%
same,LDH release cytotoxicity,0.3162278 µM,-1.37 ± 0.23%
same,LDH release cytotoxicity,1 µM,-1.59 ± 0.4%
same,LDH release cytotoxicity,3.16228 µM,-0.839 ± 0.86%
same,LDH release cytotoxicity,10 µM,-1.07 ± 0.4%
same,LDH release cytotoxicity,31.6228 µM,-0.362 ± 0.47%
same,LDH release cytotoxicity,100 µM,0.493 ± 0.011%
"CCN(CC)CCO [N,N-Diethylethanolamine]",LDH release cytotoxicity,0.03162 µM,-0.085 ± 0.14%
same,LDH release cytotoxicity,0.1 µM,-0.79 ± 0.26%
same,LDH release cytotoxicity,0.3162278 µM,-0.301 ± 0.27%
same,LDH release cytotoxicity,1 µM,-0.496 ± 0.54%
same,LDH release cytotoxicity,3.16228 µM,-0.856 ± 0.15%
same,LDH release cytotoxicity,10 µM,-0.12 ± 0.4%
same,LDH release cytotoxicity,31.6228 µM,0.244 ± 0.28%
same,LDH release cytotoxicity,100 µM,1.74 ± 0.11%
"CN(C)c1ccccc1 [N,N-Dimethylaniline]",LDH release cytotoxicity,0.030516 µM,-0.91 ± 0.26%
same,LDH release cytotoxicity,0.0965 µM,-1.79 ± 0.17%
same,LDH release cytotoxicity,0.30516 µM,-1.99 ± 0.44%
same,LDH release cytotoxicity,0.965 µM,-2.41 ± 0.19%
same,LDH release cytotoxicity,3.0515979 µM,-1.849 ± 0.013%
same,LDH release cytotoxicity,9.65 µM,-1.69 ± 0.57%
same,LDH release cytotoxicity,30.516 µM,-2.11 ± 1.2%
same,LDH release cytotoxicity,96.5 µM,-0.103 ± 1.2%
"CCCCCCCCCC[N+](C)(C)[O-] [N,N-Dimethyldecylamine oxide]",LDH release cytotoxicity,0.031623 µM,-1.68 ± 1.2%
same,LDH release cytotoxicity,0.1 µM,-2.43 ± 1.6%
same,LDH release cytotoxicity,0.316228 µM,-2.73 ± 1.6%
same,LDH release cytotoxicity,1 µM,-2 ± 1.5%
same,LDH release cytotoxicity,3.16228 µM,-2.26 ± 0.2%
same,LDH release cytotoxicity,10 µM,-2.07 ± 0.077%
same,LDH release cytotoxicity,31.6228 µM,-0.853 ± 1%
same,LDH release cytotoxicity,100 µM,1.25 ± 0.8%
"CN(C)C=O [N,N-Dimethylformamide]",LDH release cytotoxicity,0.03162 µM,-0.983 ± 1%
same,LDH release cytotoxicity,0.1 µM,-2.55 ± 0.58%
same,LDH release cytotoxicity,0.3162278 µM,-1.61 ± 0.38%
same,LDH release cytotoxicity,1 µM,-2.12 ± 0.24%
same,LDH release cytotoxicity,3.16228 µM,-2.02 ± 0.55%
same,LDH release cytotoxicity,10 µM,-1.22 ± 0.21%
same,LDH release cytotoxicity,31.6228 µM,-0.581 ± 0.99%
same,LDH release cytotoxicity,100 µM,0.434 ± 0.12%
"CCCCCCCCN(C)C [N,N-Dimethyloctylamine]",LDH release cytotoxicity,0.031939 µM,-1.23 ± 0.93%
same,LDH release cytotoxicity,0.101 µM,-0.78 ± 0.02%
same,LDH release cytotoxicity,0.31939 µM,-2.01 ± 1.1%
same,LDH release cytotoxicity,1.01 µM,-1.97 ± 1.2%
same,LDH release cytotoxicity,3.1939004 µM,-1.09 ± 0.4%
same,LDH release cytotoxicity,10.1 µM,-1.35 ± 0.46%
same,LDH release cytotoxicity,31.939 µM,-0.557 ± 0.49%
same,LDH release cytotoxicity,101 µM,2.22 ± 0.066%
CCNc1cccc(C)c1 [N-Ethyl-3-methylaniline],LDH release cytotoxicity,0.03162 µM,-1.25 ± 0.2%
same,LDH release cytotoxicity,0.1 µM,-0.734 ± 0.64%
same,LDH release cytotoxicity,0.3162278 µM,-1.13 ± 0.64%
same,LDH release cytotoxicity,1 µM,-0.866 ± 0.67%
same,LDH release cytotoxicity,3.16228 µM,-0.912 ± 0.26%
same,LDH release cytotoxicity,10 µM,-0.509 ± 0.35%
same,LDH release cytotoxicity,31.6228 µM,-0.424 ± 0.49%
same,LDH release cytotoxicity,100 µM,1.66 ± 0.53%
CCNc1ccccc1 [N-Ethylaniline],LDH release cytotoxicity,0.03162 µM,-1.05 ± 0.66%
same,LDH release cytotoxicity,0.1 µM,-1.82 ± 1.1%
same,LDH release cytotoxicity,0.3162278 µM,-0.782 ± 1.1%
same,LDH release cytotoxicity,1 µM,-2.09 ± 1.1%
same,LDH release cytotoxicity,3.16228 µM,-0.812 ± 0.9%
same,LDH release cytotoxicity,10 µM,-0.444 ± 0.085%
same,LDH release cytotoxicity,31.6228 µM,-0.781 ± 0.36%
same,LDH release cytotoxicity,100 µM,0.942 ± 0.42%
CCNS(=O)(=O)C(F)(F)C(F)(F)C(F)(F)C(F)(F)C(F)(F)C(F)(F)C(F)(F)C(F)(F)F [N-Ethylperfluorooctanesulfonamide],LDH release cytotoxicity,0.03162 µM,-0.318 ± 1.2%
same,LDH release cytotoxicity,0.1 µM,-0.363 ± 0.53%
same,LDH release cytotoxicity,0.3162278 µM,-1.47 ± 0.29%
same,LDH release cytotoxicity,1 µM,-0.894 ± 0.41%
same,LDH release cytotoxicity,3.16228 µM,-1.27 ± 0.88%
same,LDH release cytotoxicity,10 µM,-0.5 ± 0.13%
same,LDH release cytotoxicity,31.6228 µM,0.958 ± 1.5%
same,LDH release cytotoxicity,100 µM,2.37 ± 1%
CN1CCCC1=O [N-Methyl-2-pyrrolidone],LDH release cytotoxicity,0.03162 µM,-2.92 ± 1.9%
same,LDH release cytotoxicity,0.1 µM,-3.16 ± 0.5%
same,LDH release cytotoxicity,0.3162278 µM,-2.9 ± 0.41%
same,LDH release cytotoxicity,1 µM,-2.75 ± 0.92%
same,LDH release cytotoxicity,3.16228 µM,-1.74 ± 1.5%
same,LDH release cytotoxicity,10 µM,-1.93 ± 0.75%
same,LDH release cytotoxicity,31.6228 µM,-2.93 ± 0.35%
same,LDH release cytotoxicity,100 µM,7.04 ± 0.053%

# Reference: the supplement of paper PMC7840683
